For assay [1], the target named is JAK1 (recombinant purified GST-tagged catalytic domain) (Homo sapiens (Human), UniProt P23458). The experiment in a line: Jak Biochemical HTRF Assay (JAK1). To be noted: [ATP] 31.8 μM. In outline: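 Kinase reaction with biotinylated peptide substrate was started by ATP addition and run 120 min at room temperature, then quenched with EDTA stop buffer containing streptavidin-Dylight 650 and Eu-pY20 antibody. HTRF read 60 min later (665/615 nm ratio); percent inhibition vs log concentration fit to 4-parameter curve for IC50.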
JAK1 (recombinant purified GST-tagged catalytic domain), sequence (P23458 875-1153): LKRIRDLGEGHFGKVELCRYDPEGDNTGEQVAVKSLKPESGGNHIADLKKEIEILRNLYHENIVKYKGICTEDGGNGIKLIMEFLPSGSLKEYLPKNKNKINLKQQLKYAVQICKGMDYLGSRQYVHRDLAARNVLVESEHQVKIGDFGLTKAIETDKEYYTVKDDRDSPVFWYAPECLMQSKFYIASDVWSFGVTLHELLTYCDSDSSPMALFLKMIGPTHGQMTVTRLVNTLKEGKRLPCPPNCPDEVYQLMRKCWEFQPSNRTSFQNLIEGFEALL

For assay [2], the target named is JAK2 (recombinant purified GST-tagged catalytic domain) (Homo sapiens (Human), UniProt O60674). The experiment in a line: Jak Biochemical HTRF Assay (JAK2). To be noted: [ATP] 8.5 μM.
JAK2 (recombinant purified GST-tagged catalytic domain), sequence (O60674 849-1124): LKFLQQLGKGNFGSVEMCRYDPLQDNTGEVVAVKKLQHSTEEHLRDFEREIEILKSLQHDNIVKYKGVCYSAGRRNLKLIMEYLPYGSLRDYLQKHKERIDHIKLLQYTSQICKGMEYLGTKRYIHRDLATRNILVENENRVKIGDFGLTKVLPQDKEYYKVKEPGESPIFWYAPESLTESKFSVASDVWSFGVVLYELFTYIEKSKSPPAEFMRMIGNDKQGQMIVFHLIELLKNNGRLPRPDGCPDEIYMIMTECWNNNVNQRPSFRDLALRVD

SMILES strings stand for the structures.

Usually IC50 stands for the concentration at which inhibition is half-maximal.

As for `CC(C)(C)OC(=O)N1CCC(CC#N)(n2nc(Nc3ccc4c(c3)CN(CC3CC3)S4(=O)=O)c3c(=O)[nH]ccc32)CC1` [Example 5-68, tert-butyl 4-(cyanomethyl)-4-(3-{[2-(cyclopropylmethyl)-1,1-dioxo-2,3-dihydro-1,2-benzothiazol-5-yl]amino}-4-oxo-1H,4H,5H-pyrazolo[4,3-c]pyridin-1-yl)piperidine-1-carboxylate], the half-maximal inhibitory concentration (IC50) in assay [1] was 0.25 nM; in assay [2], 0.33 nM.

For the compound `CCNC(c1ccc(Nc2nn([C@]3(CC#N)CC[C@@H](C(=O)OC(C)(C)C)OC3)c3cc[nH]c(=O)c23)cc1)C(F)(F)F` (single isomer, unassigned) [Example 5-208, (2S,5S)-tert-butyl 5-(cyanomethyl)-5-(3-((4-((R or S)-1-(ethylamino)-2,2,2-trifluoroethyl)phenyl)amino)-4-oxo-4,5-dihydro-1H-pyrazolo[4,3-c]pyridin-1-yl)tetrahydro-2H-pyran-2-carboxylate], the IC50 in assay [1] was 0.24 nM; in assay [2], 0.31 nM.

With `CC(C)(C)OC(=O)N1CCC(CC#N)(n2nc(Nc3cc(Cn4cccn4)cc(Cn4cccn4)c3)c3c(=O)[nH]ccc32)CC1` [Example 5-60, tert-butyl 4-(3-(3,5-bis((1H-pyrazol-1-yl)methyl)phenylamino)-4-oxo-4,5-dihydropyrazolo[4,3-c]pyridin-1-yl)-4-(cyanomethyl)piperidine-1-carboxylate], the concentration for half-maximal inhibition (IC50) worked out at 1.07 nM in assay [1] and 0.46 nM in assay [2].

In the case of `CC(C)(C)OC(=O)[C@@H]1CC[C@@](CC#N)(n2nc(Nc3ccnc(F)c3)c3c(=O)[nH]ccc32)CO1` [Example 21-6, (2S,5S)-tert-butyl 5-(cyanomethyl)-5-(3-((2-fluoropyridin-4-yl)amino)-4-oxo-4,5-dihydro-1H-pyrazolo[4,3-c]pyridin-1-yl)tetrahydro-2H-pyran-2-carboxylate], the figures for the 50% inhibitory concentration (IC50) in assay [1] and in assay [2] were 0.12 nM and 2.25 nM, respectively.

Regarding `Cc1cc(Nc2nn([C@]3(CC#N)CCCOC3)c3cc[nH]c(=O)c23)ccc1C(=O)N1CC[C@@H](F)C1` [Example 5-115, 2-((S)-3-(3-((4-((R)-3-fluoropyrrolidine-1-carbonyl)-3-methylphenyl)amino)-4-oxo-4,5-dihydro-1H-pyrazolo[4,3-c]pyridin-1-yl)tetrahydro-2H-pyran-3-yl)acetonitrile], the IC50 in assay [1] was 0.33 nM; in assay [2], 0.99 nM.

With `CC(C)(C)NC(=O)[C@@H]1CC[C@@](CC#N)(n2nc(Nc3ccc4c(c3)CN(C(C)(C)C)S4(=O)=O)c3c(=O)[nH]ccc32)CO1` [Example 19-1, (2S,5S)-N-(tert-butyl)-5-(3-((2-(tert-butyl)-1,1-dioxido-2,3-dihydrobenzo[d]isothiazol-5-yl)amino)-4-oxo-4,5-dihydro-1H-pyrazolo[4,3-c]pyridin-1-yl)-5-(cyanomethyl)tetrahydro-2H-pyran-2-carboxamide], the concentration for half-maximal inhibition (IC50) amounted to 0.08 nM in assay [1] and 1.94 nM in assay [2].

In the case of `N#CC[C@@]1(n2nc(Nc3ccc(S(=O)(=O)N4CCC4)cc3)c3c(=O)[nH]ccc32)CCCOC1` [Example 5-105, [(3S)-3-(3-{[4-(azetidin-1-ylsulfonyl)phenyl]amino}-4-oxo-4,5-dihydro-1H-pyrazolo[4,3-c]pyridin-1-yl)tetrahydro-2H-pyran-3-yl]acetonitrile], the values for the 50% inhibitory concentration (IC50) in assay [1] and in assay [2] were 0.23 nM and 0.55 nM, respectively.

Take `CC(C)NC(c1ccc(Nc2nn([C@]3(CC#N)CCCOC3)c3cc[nH]c(=O)c23)cc1)C(F)(F)F` (single isomer, unassigned) [Example 5-205, [(3S)-3-{4-oxo-3-[(4-{(1R or 1S)-2,2,2-trifluoro-1-[(1-methylethyl)amino]ethyl}phenyl)amino]-4,5-dihydro-1H-pyrazolo[4,3-c]pyridin-1-yl}tetrahydro-2H-pyran-3-yl]acetonitrile]: the results for the concentration for half-maximal inhibition (IC50) in assay [1] and in assay [2] were 0.17 nM and 0.2 nM, respectively.

Turning to `CC(C)(C)N1Cc2cc(Nc3nn(C4(CC#N)CCOCC4)c4cc[nH]c(=O)c34)ccc2S1(=O)=O` [Example 5-251, 2-(4-(3-((2-(tert-butyl)-1,1-dioxido-2,3-dihydrobenzo[d]isothiazol-5-yl)amino)-4-oxo-4,5-dihydro-1H-pyrazolo[4,3-c]pyridin-1-yl)tetrahydro-2H-pyran-4-yl)acetonitrile], the IC50 was 0.06 nM in assay [1] and 0.78 nM in assay [2].

For the compound `N#CC[C@]1(n2nc(Nc3ccc4c(c3)CN(C3CCN(CC(F)(F)F)CC3)S4(=O)=O)c3c(=O)[nH]ccc32)CCOC[C@H]1F` (single isomer, unassigned) [Example 5-278, 2-((3S,4S or 3R,4R)-4-(3-((1,1-dioxido-2-(1-(2,2,2-trifluoroethyl)piperidin-4-yl)-2,3-dihydrobenzo[d]isothiazol-5-yl)amino)-4-oxo-4,5-dihydro-1H-pyrazolo[4,3-c]pyridin-1-yl)-3-fluorotetrahydro-2H-pyran-4-yl)acetonitrile], the half-inhibitory concentration (IC50) in assay [1] amounted to 0.2 nM; in assay [2] it was 2.65 nM.

Turning to `CC(C)(C)OC(=O)[C@@H]1CC[C@@](CC#N)(n2nc(Nc3ccc4c(c3)CN(C(C)(C)C)C4=O)c3c(=O)[nH]ccc32)CO1` [Example 5-100, (2S,5S)-tert-butyl 5-(3-((2-(tert-butyl)-1-oxoisoindolin-5-yl)amino)-4-oxo-4,5-dihydro-1H-pyrazolo[4,3-c]pyridin-1-yl)-5-(cyanomethyl)tetrahydro-2H-pyran-2-carboxylate], the IC50 turned out to be 0.14 nM in assay [1] and 0.26 nM in assay [2].

`CC(C)(C)OC(=O)[C@@H]1CC[C@@](CC#N)(n2nc(Nc3ccc4nc(C(N)=O)ccc4c3)c3c(=O)[nH]ccc32)CO1` [Example 5-223, (2S,5S)-tert-butyl 5-(3-((2-carbamoylquinolin-6-yl)amino)-4-oxo-4,5-dihydro-1H-pyrazolo[4,3-c]pyridin-1-yl)-5-(cyanomethyl)tetrahydro-2H-pyran-2-carboxylate]: the IC50 in assay [1] was 0.07 nM; in assay [2], 0.82 nM.

On to `CN(C)S(=O)(=O)c1ccc(Nc2nn(C3(CC#N)CCN(C(=O)CC#N)CC3)c3cc[nH]c(=O)c23)cc1` [Example 9-25, 4-((1-(1-(2-cyanoacetyl)-4-(cyanomethyl)piperidin-4-yl)-4-oxo-4,5-dihydro-1H-pyrazolo[4,3-c]pyridin-3-yl)amino)-N,N-dimethylbenzenesulfonamide], for which the IC50 was 0.1 nM in assay [1] and 0.16 nM in assay [2].

On to `N#CC[C@]1(n2nc(Nc3ccc(Cl)cc3)c3c(=O)[nH]ccc32)CCOC1` (single isomer, unassigned) [Example 5-242, [(3S or 3R)-3-{3-[(4-chlorophenyl)amino]-4-oxo-4,5-dihydro-1H-pyrazolo[4,3-c]pyridin-1-yl}tetrahydrofuran-3-yl]acetonitrile], for which the IC50 worked out at 14 nM in assay [1] and 130 nM in assay [2].

`Cc1cc(Nc2nn(C3(CC#N)CCN(c4ccc(C#N)cn4)CC3F)c3cc[nH]c(=O)c23)ccc1C(=O)N1CCSCC1` (stereo in doubt) [Example 15-6, 6-((3R,4R)-4-(cyanomethyl)-3-fluoro-4-(3-((3-methyl-4-(thiomorpholine-4-carbonyl)phenyl)amino)-4-oxo-4,5-dihydro-1H-pyrazolo[4,3-c]pyridin-1-yl)piperidin-1-yl)nicotinonitrile]: the IC50 worked out at 0.1 nM in assay [1] and 0.09 nM in assay [2].

Take `CC(OC(=O)N1CCC(CC#N)(n2nc(Nc3ccc(S(=O)(=O)N(C)C)cc3)c3c(=O)[nH]ccc32)CC1)c1ccccn1` (stereo not shown) [Example 11-9, 1-(pyridin-2-yl)ethyl 4-(cyanomethyl)-4-(3-((4-(N,N-dimethylsulfamoyl)phenyl)amino)-4-oxo-4,5-dihydro-1H-pyrazolo[4,3-c]pyridin-1-yl)piperidine-1-carboxylate]: the IC50 is 0.41 nM in assay [1] and 1.37 nM in assay [2].

Regarding `CC(C)(C)OC(=O)N1CC(CC#N)(n2nc(Nc3ccnc(C(F)(F)F)c3)c3c(=O)[nH]ccc32)C1` [Example 4-1, tert-butyl 3-(cyanomethyl)-3-(4-oxo-3-((2-(trifluoromethyl)pyridin-4-yl)amino)-4,5-dihydro-1H-pyrazolo[43-c]pyridin-1-yl)azetidine-1-carboxylate], the IC50 in assay [1] was 32.9 nM; in assay [2], 218 nM.

With `CC(C)(C)OC(=O)N1CCC(CC#N)(n2nc(Nc3ccc(C4(C(F)(F)F)CCNC4)cc3)c3c(=O)[nH]ccc32)CC1` (single isomer, unassigned) [Example 5-282, (S or R) tert-butyl 4-(cyanomethyl)-4-(4-oxo-3-((4-(3-(trifluoromethyl)pyrrolidin-3-yl)phenyl)amino)-4,5-dihydro-1H-pyrazolo[4,3-c]pyridin-1-yl)piperidine-1-carboxylate], the 50% inhibitory concentration (IC50) was 0.33 nM in assay [1] and 0.49 nM in assay [2].

As to `CC(C)N(C)S(=O)(=O)c1ccc(Nc2nn([C@]3(CC#N)CC[C@@H](C(=O)OC(C)(C)C)OC3)c3cc[nH]c(=O)c23)cc1` [Example 5-91, (2S,5S)-tert-butyl 5-(cyanomethyl)-5-(3-((4-(N-isopropyl-N-methylsulfamoyl)phenyl)amino)-4-oxo-4,5-dihydro-1H-pyrazolo[4,3-c]pyridin-1-yl)tetrahydro-2H-pyran-2-carboxylate], the half-inhibitory concentration (IC50) in assay [1] is 0.14 nM; in assay [2], 0.23 nM.

For the compound `CN(C)S(=O)(=O)c1ccc(Nc2nn(C3(CC#N)CCN(Cc4ccccc4F)CC3)c3cc[nH]c(=O)c23)cc1` [Example 8-9, 4-({1-[4-(cyanomethyl)-1-(2-fluorobenzyl)piperidin-4-yl]-4-oxo-4,5-dihydro-1H-pyrazolo[4,3-c]pyridin-3-yl}amino)-N,N-dimethylbenzenesulfonamide], the IC50 in assay [1] amounted to 0.19 nM; in assay [2], 0.28 nM.

The values above are taken from patent US9957264B2 (Merck Sharp & Dohme Corp., priority 2013, dated 2018).
